Some results are limits rather than exact numbers.

For the assay, the target named is Glycogen synthase kinase-3 beta (Homo sapiens, UniProt P49841). As to the kind of experiment: GSK3beta kinase inhibitor potency, dose response, biochemical, luminescence, cell-free homogeneous, retest (AID 434954).
Chain of Glycogen synthase kinase-3 beta (P49841 whole entry): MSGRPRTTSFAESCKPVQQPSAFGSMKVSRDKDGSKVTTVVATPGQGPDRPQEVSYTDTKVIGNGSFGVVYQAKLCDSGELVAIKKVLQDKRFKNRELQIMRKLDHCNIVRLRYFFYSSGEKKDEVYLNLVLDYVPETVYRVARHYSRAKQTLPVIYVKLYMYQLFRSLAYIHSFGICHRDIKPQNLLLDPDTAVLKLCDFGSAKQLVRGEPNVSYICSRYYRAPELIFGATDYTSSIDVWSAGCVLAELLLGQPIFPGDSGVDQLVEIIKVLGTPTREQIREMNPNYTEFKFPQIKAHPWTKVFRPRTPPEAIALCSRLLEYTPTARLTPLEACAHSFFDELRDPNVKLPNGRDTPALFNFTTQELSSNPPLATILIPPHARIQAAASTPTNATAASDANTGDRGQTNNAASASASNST
By EC50 is commonly meant the concentration that produces a half-maximal response. `Clc1ccc(CSc2nnc(-c3ccncc3)o2)c(Cl)c1` [2-[(2,4-dichlorobenzyl)thio]-5-(4-pyridyl)-1,3,4-oxadiazole] gave an EC50 of 6.31 µM.

The compound `CCOC(=O)c1cnc2c(C)cccc2c1Nc1ccc(N2CCOCC2)cc1` [ethyl 8-methyl-4-[(4-morpholin-4-ylphenyl)amino]quinoline-3-carboxylate] registered an EC50 greater than 300 µM.

In turn, `CCc1ccc(C=NNC(=O)c2nnn(-c3nonc3N)c2CN2CCc3ccccc32)cc1` [1-(4-amino-1,2,5-oxadiazol-3-yl)-5-(2,3-dihydroindol-1-ylmethyl)-N-[(4-ethylphenyl)methylideneamino]triazole-4-carboxamide] came in with an EC50 greater than 300 µM.

On to `Nc1nc(NCCc2ccccc2)nc(NCCO)c1[N+](=O)[O-]` [MLS001213372], for which a half-maximal effect (EC50) was put at 2.01 µM.

In the case of `CCCCc1cc(=O)oc2cc(OS(C)(=O)=O)ccc12` [(4-butyl-2-oxidanylidene-chromen-7-yl) methanesulfonate], the EC50 is greater than 300 µM.

`Cc1ccnc(NC(=O)CCC(=O)N(CC(=O)NCc2ccccc2)Cc2cccs2)c1`: a half-maximal effect (EC50) was put at 16.9 µM.

As to `O=C(CN1C(=O)CCC1=O)Nc1ccc(Cc2ccc(NC(=O)CN3C(=O)CCC3=O)cc2)cc1` [2-(2,5-dioxo-1-pyrrolidinyl)-N-[4-[[4-[[2-(2,5-dioxo-1-pyrrolidinyl)-1-oxoethyl]amino]phenyl]methyl]phenyl]acetamide], the EC50 is greater than 300 µM.

`Cc1c(NC(=O)CSc2nnc3sc4ccccc4n23)c(=O)n(-c2ccccc2)n1C` [MLS000060665]: the half-maximal effective concentration (EC50) was greater than 300 µM.

`Cc1ccc(C(=O)COC(=O)c2ccc(O)cc2)cc1` came in with an EC50 greater than 300 µM.

With `Nc1nc(NCc2ccccc2)nc(Nc2ccc(F)cc2)c1[N+](=O)[O-]` [2-N-benzyl-4-N-(4-fluorophenyl)-5-nitropyrimidine-2,4,6-triamine], the EC50 was greater than 300 µM.

In the case of `CCCc1c(NC(=O)Nc2ccc(F)cc2)cnn1-c1ccccc1` [1-(4-fluorophenyl)-3-(1-phenyl-5-propylpyrazol-4-yl)urea], the EC50 was greater than 300 µM.

Turning to `CCOC(=O)C1C(C)=Nc2ncnn2C1/C=C/c1ccccc1` (configuration not stated) [MLS000089169], the EC50 was greater than 300 µM.

For `CC(C)(C)NC1=NN=C(c2ccc(Cl)cc2)CS1` [N-tert-butyl-5-(4-chlorophenyl)-6H-1,3,4-thiadiazin-2-amine], the EC50 was greater than 300 µM.

As for `COc1ccc(N(CN2C(=O)C3CC=CCC3C2=O)C(=O)c2ccco2)cc1` (configuration not stated) [N-[(1,3-dioxo-3a,4,7,7a-tetrahydroisoindol-2-yl)methyl]-N-(4-methoxyphenyl)-2-furancarboxamide], the EC50 was greater than 300 µM.

Take `Cn1nc(-c2ccc(Cl)cc2)nc2c(=O)n(C)c(=O)nc1-2` [3-(4-Chloro-phenyl)-1,6-dimethyl-1H-pyrimido[5,4-e][1,2,4]triazine-5,7-dione]: the EC50 is 24 µM.

On to `Nc1nc(NCc2ccco2)nc(NCCO)c1[N+](=O)[O-]`, for which the half-maximal effective concentration (EC50) is greater than 300 µM.

`CCCOc1cc(C)nc(-c2ccccc2O)n1` [(6E)-6-(6-methyl-4-propoxy-1H-pyrimidin-2-ylidene)-1-cyclohexa-2,4-dienone] returned an EC50 greater than 300 µM.

The compound `CC1(C)Nc2ccc(O)cc2-c2c1ssc2=S` [SMR000038969] gave an EC50 of 21.4 µM.

`COc1ccc(-c2c(N)nnc3c2[nH]c2ccccc23)cc1OC` registered an EC50 greater than 300 µM.

Take `COc1ccccc1N(CC(=O)N1CCc2ccccc2C1)S(C)(=O)=O` [N-[2-(3,4-dihydro-1H-isoquinolin-2-yl)-2-oxoethyl]-N-(2-methoxyphenyl)methanesulfonamide]: the concentration for a half-maximal effect (EC50) is greater than 300 µM.

Compound `CC(C)=CCc1c(O)cc2c(c1O)C(=O)CC(c1ccc(O)cc1)O2` (configuration not stated) [2-(4-hydroxyphenyl)-6-(3-methylbut-2-enyl)-5,7-bis(oxidanyl)-2,3-dihydrochromen-4-one] showed an EC50 greater than 300 µM.

`NS(=O)(=O)c1ccc(CCNC(=O)C(=O)c2cn(CC(=O)N3CCCC3)c3ccccc23)cc1` [MLS001235966] had an EC50 greater than 300 µM.

As for `O=C(CC1NCCNC1=O)Nc1cc(Cl)cc(Cl)c1` (configuration not stated) [N-(3,5-dichlorophenyl)-2-(3-oxopiperazin-2-yl)acetamide], the concentration giving a half-maximal response (EC50) is greater than 300 µM.

With `CC1=C(C#N)C(=O)NC(=O)C1=CNc1ccc(S(=O)(=O)CCO)cc1` [(5Z)-5-[[[4-(2-hydroxyethylsulfonyl)phenyl]amino]methylidene]-4-methyl-2,6-bis(oxidanylidene)pyridine-3-carbonitrile], the EC50 is greater than 300 µM.

`O=C(NC1CCCCCC1)C1CCCN(S(=O)(=O)c2cccs2)C1` (configuration not stated) [N-cycloheptyl-1-thiophen-2-ylsulfonylpiperidine-3-carboxamide]: the EC50 was greater than 300 µM.

In turn, `O=c1c(O)c(-c2ccc(O)c(O)c2)oc2cc(O)cc(O)c12` [2-(3,4-dihydroxyphenyl)-3,5,7-trihydroxy-chromone;hydrate] returned a 50% effective concentration (EC50) of 10.1 µM.

Turning to `CCO[C@H]1OC(C(=O)N2CCN(Cc3ccccc3)CC2)=C[C@@H](C)[C@@H]1CCCO`, the half-maximal effective concentration (EC50) is greater than 300 µM.

In turn, `CCCN(CCC)Cc1c(C(=O)NN=Cc2ccco2)nnn1-c1nonc1N` came in with an EC50 greater than 300 µM.

With `O=C1OCCC1Sc1nnc(-c2ccc(O)cc2)o1` (configuration not stated) [3-[[2-(4-oxo-1-cyclohexa-2,5-dienylidene)-3H-1,3,4-oxadiazol-5-yl]thio]-2-oxolanone], it took 14.3 µM to reach a half-maximal effect (EC50).

Compound `N=C(Cc1nc2ccccc2s1)NO` [2-(1,3-benzothiazol-2-yl)-N'-oxidanyl-ethanimidamide] came in with an EC50 greater than 300 µM.

On to `Cc1cc(OCCCn2ccnc2)ccc1[N+](=O)[O-]` [SMR000497363], for which the EC50 was greater than 300 µM.

`O=C(Nc1cc(-c2ccccc2)n[nH]1)c1ccccc1` [SMR000459251] registered an EC50 greater than 300 µM.

`O=C(Nc1ccccc1)Nc1ccncc1`: the EC50 is greater than 300 µM.

`O=C(/C=C/c1ccc2ccccc2c1)c1ccoc1` [SMR000179251] returned an EC50 greater than 300 µM.

In the case of `Brc1ccc(CSc2nnc(-c3cccnc3)o2)cc1` [SMR000292494], the EC50 was greater than 300 µM.

For the compound `O=C(O)/C=C/c1cn(-c2ccccc2)nc1-c1cccc([N+](=O)[O-])c1` [MLS000774824], the 50% effective concentration (EC50) is greater than 300 µM.

`COc1cc(C(c2nnnn2C(C)(C)C)N2CCN(c3nc4ccccc4s3)CC2)ccc1O` (configuration not stated) [MLS000027473] showed an EC50 greater than 300 µM.

With `NS(=O)(=O)c1ccc(NC(=O)CN2C(=O)CCC2=O)cc1` [2-[2,5-bis(oxidanylidene)pyrrolidin-1-yl]-N-(4-sulfamoylphenyl)ethanamide], the EC50 was greater than 300 µM.

Regarding `COc1ccc(OCCN(C)Cc2ccccc2)cc1`, the EC50 was greater than 300 µM.

In the case of `O=C(OCc1ccc(COC(=O)c2ccc(O)cc2)cc1)c1ccc(O)cc1` [SMR000588531], the EC50 is greater than 300 µM.

On to `Nc1nonc1-n1nnc(C(=O)NN=Cc2ccccc2F)c1CN1CCOCC1` [1-(4-azanyl-1,2,5-oxadiazol-3-yl)-N-[(2-fluorophenyl)methylideneamino]-5-(morpholin-4-ylmethyl)-1,2,3-triazole-4-carboxamide], for which it took 92.1 µM to reach a half-maximal effect (EC50).

Take `CC(C)=CCc1c(O)cc(O)c2c(=O)c3c(CC=C(C)C)c(O)ccc3oc12` [2,6,8-trihydroxy-1,5-bis(3-methylbut-2-enyl)xanthen-9-one]: the EC50 was greater than 300 µM.

Consider `Fc1ccccc1Cn1c2[n+](c3ccc(C(F)(F)F)cc31)CCCCC2`, for which the EC50 is greater than 300 µM.

Consider `COCCn1c(SCC(=O)NCc2ccc(F)cc2)nc2ccccc21` [N-[(4-fluorophenyl)methyl]-2-[1-(2-methoxyethyl)benzimidazol-2-yl]sulfanylacetamide], for which the EC50 is greater than 300 µM.

Regarding `Fc1ccc(CSc2nnc(-c3ccccn3)o2)cc1`, the EC50 was greater than 300 µM.

`COC(=O)c1sc(=S)n(Cc2ccccc2)c1C` [methyl 3-benzyl-4-methyl-2-sulfanylidene-1,3-thiazole-5-carboxylate] gave an EC50 greater than 300 µM.

Take `CC(C(=O)NCc1ccccc1)n1cc([N+](=O)[O-])cn1` (configuration not stated) [SMR000559338]: the EC50 is greater than 300 µM.

`CC(=O)Nc1ncc2c(n1)CC(c1ccco1)CC2=O` (configuration not stated) [N-(7-Furan-2-yl-5-oxo-5,6,7,8-tetrahydro-quinazolin-2-yl)-acetamide] yielded an EC50 greater than 300 µM.

For the compound `CCc1ccc(C=NNC(=O)c2nnn(-c3nonc3N)c2CN2CCOCC2)cc1`, the EC50 is greater than 300 µM.

`O=C(NCC(c1ccco1)N1CCc2ccccc2C1)c1ccccc1Cl` (configuration not stated) [2-chloro-N-[2-(3,4-dihydro-1H-isoquinolin-2-yl)-2-(2-furanyl)ethyl]benzamide] returned an EC50 greater than 300 µM.

Turning to `COc1ccc2nc(Cl)cc(Cl)c2c1` [SMR000430028], the EC50 is greater than 300 µM.

In the case of `Cc1c(C(=O)O)cccc1-n1c(C)cc(CN=Nc2ccc([N+](=O)[O-])cn2)c1C`, the 50% effective concentration (EC50) was 21.3 µM.

For the compound `CCn1c(SCC(=O)Nc2nccs2)nnc1C1CC1` [2-[(5-cyclopropyl-4-ethyl-1,2,4-triazol-3-yl)sulfanyl]-N-(1,3-thiazol-2-yl)ethanamide], the EC50 was greater than 300 µM.

Regarding `O=c1c2ccccc2cnn1-c1nc2ccccc2[nH]1` [MLS001017304], the EC50 is 25.1 µM.

Compound `O=C(c1cccs1)c1coc2ccc(O)c(CN3CCOCC3)c12` [[4-(morpholin-4-ylmethyl)-5-oxidanyl-1-benzofuran-3-yl]-thiophen-2-yl-methanone] returned an EC50 greater than 300 µM.

On to `Cc1ccccc1N(CC(=O)NN=Cc1cc(Br)c(C)o1)S(C)(=O)=O` [N-[(4-bromo-5-methylfuran-2-yl)methylideneamino]-2-(2-methyl-N-methylsulfonylanilino)acetamide], for which the EC50 is greater than 300 µM.

The compound `Cc1cccc(Nc2nc(NCc3ccco3)nc(N)c2[N+](=O)[O-])c1` [2-N-(furan-2-ylmethyl)-4-N-(3-methylphenyl)-5-nitropyrimidine-2,4,6-triamine] had an EC50 of 64.4 µM.

Turning to `CN(CCO)c1cc(N2CCC3(CC2)OCCO3)c2nonc2c1[N+](=O)[O-]` [MLS000584853], the 50% effective concentration (EC50) came out at 68 µM.

In turn, `CCNc1nc(N)nc(-c2cc(Cl)ccc2O)n1` [(6E)-6-[6-amino-4-(ethylamino)-1H-1,3,5-triazin-2-ylidene]-4-chloro-1-cyclohexa-2,4-dienone] had an EC50 of 3.56 µM.

As for `COc1cc2[nH]c(=O)n3nc(-c4ccccc4)nc3c2cc1OC` [8,9-dimethoxy-2-phenyl[1,2,4]triazolo[1,5-c]quinazolin-5(6H)-one], the midpoint of the response, the EC50, lay at 5.34 µM.

`CCCc1nc2c([nH]1)c(=O)n(C)c(=O)n2C` came in with an EC50 greater than 300 µM.

Take `C/C=C/c1ccc(OCC(=O)O)c(OC)c1`: the EC50 is greater than 300 µM.

The record behind these values is BindingDB's records for doi:10.7270/Q2TX3CTT (Broad Institute, 2010).
